Consider 30 compounds from patent US10258603B2 (priority 2014, dated 2019).

Structures are written as SMILES.

This experiment addresses T1, TAF1-BD2 (Homo sapiens, UniProt P21675).
T1 sequence (P21675 1525-1656): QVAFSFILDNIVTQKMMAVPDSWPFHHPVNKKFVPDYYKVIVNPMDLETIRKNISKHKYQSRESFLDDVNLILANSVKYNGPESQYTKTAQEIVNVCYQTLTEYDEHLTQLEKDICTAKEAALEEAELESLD
As to the kind of experiment: TAF1-BD2 TR-FRET Binding Assay. The note with it: Assay: TAF-1. For orientation: TR-FRET usually uses a lanthanide donor and a delayed reading to cut background.
Experimental: Specifically, in a 384 well ProxiPlate TAF1-BD2 (6 nM final) was combined with biotin-ligand (50 nM final) in 50 mM HEPES (pH 7.5), 50 mM NaCl, 1 mM TCEP, 0.01% (w/v) BSA, and 0.008% (w/v) Brij-35 either in the presence of DMSO (final 0.2% DMSO) or compound dilution series in DMSO. After 10 minutes incubation at room temperature, a mixture Eu-W1024 Anti-6×His antibody (Perkin Elmer AD0110) and SureLight™ Allophycocyanin-Streptavidin (APC-SA, Perkin Elmer CR130-100) were added to a final concentrations of 0.2 nMolar antibody and 25 nMolar APC-SA, respectively. After twenty minutes of equilibration, the plates were read on an Envision instrument and IC50s calculated using a four parameter non-linear curve fit.
Usually IC50 stands for the midpoint of a concentration-inhibition curve. The low end stands for higher potency, the high end for lower potency. In turn, `CC=CCn1cc(C(=O)NCC2CN(C(=O)OC(C)(C)C)C2)c2cc[nH]c2c1=O` [Example 10, tert-butyl 3-[[(6-but-2-enyl-7-oxo-1H-pyrrolo[2,3-c]pyridine-4-carbonyl)amino]methyl]azetidine-1-carboxylate] returned a concentration for half-maximal inhibition (IC50) of 4.7 µM. That is a single-digit micromolar value.

With `CC=CCn1cc(C(=O)NCCNC(C)=O)c2cc[nH]c2c1=O` [Example 14, N-(2-acetamidoethyl)-6-but-2-enyl-7-oxo-1H-pyrrolo[2,3-c]pyridine-4-carboxamide], the IC50 came out at 3.7 µM.

`CC=CCn1cc(C(=O)NC(C)(C)C)c2cc[nH]c2c1=O` [Example 15, 6-but-2-enyl-N-tert-butyl-7-oxo-1H-pyrrolo[2,3-c]pyridine-4-carboxamide] displayed an IC50 of 0.97 µM.

Regarding `CC=CCn1cc(C(=O)NCCN2CCN(Cc3ccccc3)CC2)c2cc[nH]c2c1=O` [Example 16, N-[2-(4-benzylpiperazin-1-yl)ethyl]-6-but-2-enyl-7-oxo-1H-pyrrolo[2,3-c]pyridine-4-carboxamide], the half-maximal inhibitory concentration (IC50) turned out to be 6 µM.

With `CC=CCn1cc(C(=O)NCCCNC(=O)OCc2ccccc2)c2cc[nH]c2c1=O` [Example 17, benzyl N-[3-[(6-but-2-enyl-7-oxo-1H-pyrrolo[2,3-c]pyridine-4-carbonyl)amino]propyl]carbamate], the IC50 worked out at 3.6 µM.

As to `Cn1cc(C(=O)NCCC2CCN(CC(F)(F)F)CC2)c2cc[nH]c2c1=O` [Example 20, 6-methyl-7-oxo-N-[2-[1-(2,2,2-trifluoroethyl)-4-piperidyl]ethyl]-1H-pyrrolo[2,3-c]pyridine-4-carboxamide], the 50% inhibitory concentration (IC50) is 1.5 µM.

Turning to `CN1CCCC(CNC(=O)c2cn(C)c(=O)c3[nH]ccc23)C1` (stereo not drawn) [Example 24, 6-methyl-N-[(1-methyl-3-piperidyl)methyl]-7-oxo-1H-pyrrolo[2,3-c]pyridine-4-carboxamide], the 50% inhibitory concentration (IC50) came out at 0.15 µM.

As to `CN1CCC(CCNC(=O)c2cn(C)c(=O)c3[nH]ccc23)CC1` [Example 25, 6-methyl-N-[2-(1-methyl-4-piperidyl)ethyl]-7-oxo-1H-pyrrolo[2,3-c]pyridine-4-carboxamide], the IC50 amounted to 0.69 µM.

In turn, `CCN1CCC(CN(C)C(=O)c2cn(C)c(=O)c3[nH]ccc23)C1` (stereo not drawn) [Example 27, N-[(1-ethylpyrrolidin-3-yl)methyl]-N,6-dimethyl-7-oxo-1H-pyirolo[2,3-c]pyridine-4-carboxamide] registered an IC50 of 6.9 µM.

`Cn1cc(C(=O)NCC(C)(C)N2CCOCC2)c2cc[nH]c2c1=O` [Example 36, 6-methyl-N-(2-methyl-2-morpholino-propyl)-7-oxo-1H-pyrrolo [2,3-c]pyridine-4-carboxamide] had a 50% inhibitory concentration (IC50) of 1.7 µM.

Take `CN(C)C1CCN(C(=O)c2cn(C)c(=O)c3[nH]ccc23)CC1` [Example 40, 4-[4-(dimethylamino)piperidine-1-carbonyl]-6-methyl-1H-pyrrolo[2,3-c]pyridin-7-one]: the IC50 came out at 0.069 µM.

With `Cn1cc(C(=O)NC2CCN(c3ccccn3)CC2)c2cc[nH]c2c1=O` [Example 42, 6-methyl-7-oxo-N-[1-(2-pyridyl)-4-piperidyl]-1H-pyrrolo[2,3-c]pyridine-4-carboxamide], the IC50 stood at 0.21 µM. This IC50 lies about 3-fold higher than the previous one.

`Cn1cc(C(=O)NC2CCN(C3CCCC3)CC2)c2cc[nH]c2c1=O` [Example 43, N-(1-cyclopentyl-4-piperidyl)-6-methyl-7-oxo-1H-pyrrolo[2,3-c]pyridine-4-carboxamide] returned a half-inhibitory concentration (IC50) of 0.72 µM.

For the compound `Cn1cc(C(=O)NC2CCN(c3ncccn3)CC2)c2cc[nH]c2c1=O` [Example 44, 6-methyl-7-oxo-N-(1-pyrimidin-2-yl-4-piperidyl)-1H-pyrrolo[2,3-c]pyridine-4-carboxamide], the IC50 worked out at 0.34 µM.

For the compound `Cn1cc(C(=O)N2CCC(C(C)(C)C)CC2)c2cc[nH]c2c1=O` [Example 47, 4-(4-tert-butylpiperidine-1-carbonyl)-6-methyl-1H-pyrrolo[2,3-c]pyridin-7-one], the IC50 worked out at 2.3 µM.

Take `Cn1cc(C(=O)N2CCC(c3ccc(Cl)cc3)CC2)c2cc[nH]c2c1=O` [Example 48, 4-[4-(4-chlorophenyl)piperidine-1-carbonyl]-6-methyl-1H-pyrrolo[2,3-c]pyridin-7-one]: the concentration for half-maximal inhibition (IC50) stood at 1.5 µM.

`Cn1cc(C(=O)N2CCC(c3cccc(F)c3)CC2)c2cc[nH]c2c1=O` [Example 49, 4-[4-(3-fluorophenyl)piperidine-1-carbonyl]-6-methyl-1H-pyrrolo[2,3-c]pyridin-7-one] had an IC50 of 3.9 µM.

`Cn1cc(C(=O)N2CCC(c3cnccn3)CC2)c2cc[nH]c2c1=O` [Example 51, 6-methyl-4-(4-pyrazin-2-ylpiperidine-1-carbonyl)-1H-pyrrolo[2,3-c]pyridin-7-one]: the concentration for half-maximal inhibition (IC50) was found to be 4.4 µM. The IC50 values of the last two compounds are within 1.5-fold of each other.

Compound `CN(C1CCCCC1)C1CCN(C(=O)c2cn(C)c(=O)c3[nH]ccc23)CC1` [Example 52, 4-[4-[cyclohexyl(methyl)amino]piperidine-1-carbonyl]-6-methyl-1H-pyrrolo[2,3-c]pyridin-7-one] showed an IC50 of 7.1 µM.

In turn, `Cn1cc(C(=O)N2CCC(F)CC2)c2cc[nH]c2c1=O` [Example 53, 4-(4-fluoropiperidine-1-carbonyl)-6-methyl-1H-pyrrolo[2,3-c]pyridin-7-one] returned a concentration for half-maximal inhibition (IC50) of 8.2 µM.

`Cn1cc(C(=O)N2CCC(CCNS(C)(=O)=O)CC2)c2cc[nH]c2c1=O` [Example 54, N-[2-[1-(6-methyl-7-oxo-1H-pyrrolo[2,3-c]pyridine-4-carbonyl)-4-piperidyl]ethyl]methanesulfonamide] registered an IC50 of 2.9 µM.

Turning to `Cn1cc(C(=O)N2CCC(c3ccncn3)CC2)c2cc[nH]c2c1=O` [Example 56, 6-methyl-4-(4-pyrimidin-4-ylpiperidine-1-carbonyl)-1H-pyrrolo[2,3-c]pyridin-7-one], the IC50 amounted to 2.5 µM.

On to `Cn1cc(C(=O)N2CCC(Cc3ccccn3)CC2)c2cc[nH]c2c1=O` [Example 58, 6-methyl-4-[4-(2-pyridylmethyl)piperidine-1-carbonyl]-1H-pyrrolo[2,3-c]pyridin-7-one], for which the 50% inhibitory concentration (IC50) stood at 1.5 µM.

The compound `Cn1cc(C(=O)N2CCC(N3CCOCC3)CC2)c2cc[nH]c2c1=O` [Example 63, 6-methyl-4-(4-morpholinopiperidine-1-carbonyl)-1H-pyrrolo[2,3-c]pyridin-7-one] showed an IC50 of 4.7 µM. Against the preceding compound, the IC50 is about 3.1-fold higher.

Compound `Cn1cc(C(=O)N2CCCCC2)c2cc[nH]c2c1=O` [Example 70, 6-methyl-4-(piperidine-1-carbonyl)-1H-pyrrolo[2,3-c]pyridin-7-one] gave an IC50 of 6.4 µM.

For the compound `Cn1cc(C(=O)N2CCC(c3ccccc3)CC2)c2cc[nH]c2c1=O` [Example 71, 6-methyl-4-(4-phenylpiperidine-1-carbonyl)-1H-pyrrolo[2,3-c]pyridin-7-one], the half-inhibitory concentration (IC50) was found to be 3 µM.

For `CCCN1CCC(N(C(=O)c2cn(C)c(=O)c3[nH]ccc23)C2CC2)CC1` [Example 82, N-cyclopropyl-6-methyl-7-oxo-N-(1-propyl-4-piperidyl)-1H-pyrrolo[2,3-c]pyridine-4-carboxamide], the IC50 turned out to be 7 µM.

In the case of `Cn1cc(C(=O)NCC2CCCC2)c2cc[nH]c2c1=O` [Example 83, N-(cyclopentylmethyl)-6-methyl-7-oxo-1H-pyrrolo[2,3-c]pyridine-4-carboxamide], the half-maximal inhibitory concentration (IC50) turned out to be 0.67 µM.

Compound `COCCN(C(=O)c1cn(C)c(=O)c2[nH]ccc12)C1CCN(C)CC1` [Example 84] registered an IC50 of 5.7 µM.

With `Cn1cc(C(=O)NCC2CCCOC2)c2cc[nH]c2c1=O` (stereo not drawn) [Example 100], the IC50 was determined as 1.7 µM. This IC50 is about 3.4-fold lower than that of the compound before.
